Laboratory results reported in PubChem BioAssay (NCI).
Values joined by “and” are separate entries in the source; they are usually repeats but may differ in a detail not shown here. Equal values may be shown once.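 Dose response: 5 concentrations. Exposure: 48 h. Format: 96-well plates. Endpoint: linear interpolation; highest concentration if not reached. The concentration for 50% growth inhibition is given as GI50. TGI is the concentration that stops growth completely.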

Columns and labels:
Assay in all cases: NCI tumour cell line growth inhibition, 48 h
A498 renal = tested on: A498 renal
CAKI-1 renal = tested on: CAKI-1 renal
COLO 205 colon = tested on: COLO 205 colon
LOX IMVI melanoma = tested on: LOX IMVI melanoma
NCI-H226 lung = tested on: NCI-H226 lung
OVCAR-3 ovarian = tested on: OVCAR-3 ovarian
SK-MEL-5 melanoma = tested on: SK-MEL-5 melanoma
SNB-19 CNS = tested on: SNB-19 CNS
U251 CNS = tested on: U251 CNS
PC-3 prostate = tested on: PC-3 prostate

SMILES | GI50 (A498 renal) | TGI (A498 renal) | GI50 (CAKI-1 renal) [µM] | TGI (CAKI-1 renal) | GI50 (COLO 205 colon) | TGI (COLO 205 colon) | GI50 (LOX IMVI melanoma) | TGI (LOX IMVI melanoma) | GI50 (NCI-H226 lung) | TGI (NCI-H226 lung) | GI50 (OVCAR-3 ovarian) | TGI (OVCAR-3 ovarian) | GI50 (SK-MEL-5 melanoma) | TGI (SK-MEL-5 melanoma) | GI50 (SNB-19 CNS) | TGI (SNB-19 CNS) [µM] | GI50 (U251 CNS) [µM] | TGI (U251 CNS) | GI50 (PC-3 prostate) | TGI (PC-3 prostate)
Nc1ncn([C@H]2C[C@H](OP(=O)(O)OC[C@H]3O[C@@H](n4cnc5c(=O)[nH]c(N)nc54)C[C@@H]3O)[C@@H](CO)O2)c(=O)n1 | > 100 µM | > 100 µM | > 100 | > 100 µM | 41.4 µM | > 100 µM | 57 µM | > 100 µM | > 100 µM | > 100 µM | > 100 µM | > 100 µM | > 100 µM | > 100 µM | > 100 µM | > 100 | > 100 | > 100 µM |  | 
NC(N)=N/N=C/c1c(-c2cccnc2)nc2sc(Cl)cn12 | 20.6 µM | 37.6 µM | 20.5 | 43.4 µM |  |  | 12.4 µM | 24.8 µM | 13.4 µM | 28 µM | 15.3 µM | 30.1 µM | 15.2 µM | 28.6 µM |  |  | 13.3 | 26.1 µM | 15.2 µM | 28.5 µM
O=C(O)c1c2c(cc3c(=O)cc(-c4ccccc4)oc13)CCCC2 |  | > 100 µM |  |  |  | > 100 µM |  | > 100 µM |  |  |  | > 100 µM |  | > 100 µM |  | > 100 |  | > 100 µM |  | 
CC[PH+](CC)CC.CC[PH+](CC)CC.[Au] |  |  | 6.8 | 13.5 µM | 2.52 µM | 7.32 µM | 8.67 µM | 24.2 µM | 18.2 µM | 37.5 µM | 18.2 µM | 33.2 µM | 3.5 µM | 17.5 µM | 13.4 µM | 26.4 | 8.21 | 24.3 µM |  | 
CC(=O)OCC1OC(n2ncc(=O)[nH]c2=O)C(OC(C)=O)C1OC(C)=O (stereo not given) |  |  |  | > 100 µM |  | > 100 µM |  | > 100 µM |  | > 100 µM |  | > 100 µM |  | > 100 µM |  |  |  | > 100 µM |  | > 100 µM
CN1CCN(CCCN2c3ccccc3Sc3ccc(Cl)cc32)CC1 |  | 5.82 µM and 31.6 µM |  | 9.02 µM and 74.2 µM | 4.37 µM and 36.6 µM | 11.6 µM and 51.1 µM | 4.75 µM | 11.6 µM |  |  | 5.94 µM and 55.2 µM | 12.8 µM | 48.5 µM | 62 µM | 7.05 µM and 60.7 µM | 14.3 |  | 11.8 µM and 87.3 µM | 3.39 µM | 10.4 µM and 80.7 µM
O=C1CC(CC(OCc2ccccc2)C(OCc2ccccc2)C(COCc2ccccc2)OCc2ccccc2)CC(=O)N1 (stereo not given) | > 100 µM and 21.7 µM | > 100 µM and 89 µM |  |  |  |  | > 100 µM and 10.7 µM | > 100 µM and 22.5 µM | > 100 µM and 17.7 µM | > 100 µM and 62.4 µM | > 100 µM and 12.2 µM | > 100 µM and 44 µM | > 100 µM and 12.6 µM | > 100 µM and 25.6 µM | > 100 µM and 33.8 µM | > 100 |  | > 100 µM and 18.1 µM | > 100 µM and 11.3 µM | > 100 µM and 38.5 µM
COc1cc(CCC(=O)NC[C@@H](O)c2ccccc2)ccc1O |  |  | > 100 | > 100 µM |  |  | > 100 µM | > 100 µM | > 100 µM | > 100 µM | > 100 µM | > 100 µM | > 100 µM | > 100 µM |  |  | > 100 | > 100 µM | > 100 µM | > 100 µM
CC(C)=NNC(=S)NC12CC3CC(CC(C3)C1)C2 |  | > 100 µM |  | > 100 µM |  | > 100 µM |  | > 100 µM |  | > 100 µM |  | > 100 µM |  | > 100 µM |  | > 100 |  | > 100 µM |  | 
Cc1ccc(C(=O)NCCN(C)C)c2nc3ccccc3cc12 |  |  |  | 25.6 µM |  | > 100 µM |  | 10.4 µM |  | 3.85 µM |  | 6.79 µM |  | 2.95 µM |  | 13.6 |  | 4.09 µM |  | 
O=C1C(=O)N(c2ccc(Cl)cc2)C(=O)C(=Nc2cccc3c(=O)[nH][nH]c(=O)c23)C1c1nc2ccccc2o1 (stereo not given) |  | > 100 µM |  | > 100 µM |  | > 100 µM |  | > 100 µM |  | > 100 µM |  | > 100 µM |  | > 100 µM |  | > 100 |  | > 100 µM |  | 
Cc1ccc(S(=O)(=O)OCCOCCOCCOCCOCCOS(=O)(=O)c2ccc(C)cc2)cc1 |  | > 100 µM |  | > 100 µM |  | 34.8 µM |  | > 100 µM |  | > 100 µM |  | > 100 µM |  | 65 µM |  | > 100 |  | > 100 µM |  | 
O=C(O)Cc1ccc(N=Nc2c(O)c(C(=O)O)cc3ccccc23)cc1 |  |  |  | > 100 µM |  | > 100 µM |  |  |  | > 100 µM |  | > 100 µM |  | > 100 µM |  | > 100 |  | > 100 µM |  | > 100 µM
Cc1ccsc1-c1ccc2c(c1)COC2(CCCN(C)C)c1ccc(F)cc1 (stereo not given) |  |  | 2.19 | 6.05 µM | 1.92 µM | 4.19 µM | 1.64 µM | 3.04 µM | 8.59 µM | 25.3 µM | 2.64 µM | 9.02 µM | 1.78 µM | 3.2 µM | 2.77 µM | 10.3 | 1.95 | 4.24 µM | 3.28 µM | 13.2 µM
OCC1CCCC1O (stereo not given) |  | > 100 µM |  | > 100 µM |  | > 100 µM |  |  |  | > 100 µM |  | > 100 µM |  | > 100 µM |  | > 100 |  | > 100 µM |  | > 100 µM
CCNCCNc1cc(-c2ccc(C(F)(F)F)cc2)c(C#N)c2nc3cc(Cl)c(Cl)cc3n12 | 2 µM | 3.6 µM | 1.45 | 2.82 µM | 1.68 µM | 3.22 µM | 0.543 µM | 1.88 µM |  |  | 1.66 µM | 3.13 µM | 1.67 µM | 3.04 µM | 1.88 µM | 3.65 | 1.67 | 3.08 µM | 1.71 µM | 3.4 µM
C=CCOC(=O)Nc1cccn([C@H](CC(C)C)C(=O)NCCC(C)C)c1=O | 17.2 µM | > 100 µM | 29 | > 100 µM | > 100 µM | > 100 µM |  |  | > 100 µM | > 100 µM | 54.5 µM | > 100 µM | 74.7 µM | > 100 µM | > 100 µM | > 100 | 92.3 | > 100 µM | 49.7 µM | > 100 µM
